We go through 17 molecules from PubChem BioAssay AID328 (DTP/NCI, 2004).

The structures appear in SMILES notation. Values joined by “and” are separate entries in the source; they are usually repeats but may differ in a detail not shown here. Equal entries are not always repeated. Toxic doses and inconclusive results are not listed.

In the assay the test system is BDF1 mice, P388 leukemia ip, median survival T/C. The assay can be described thus: NCI In Vivo Anticancer Drug Screen. Data for tumor model P388 Leukemia (intraperitoneal) in B6D2F1 (BDF1) mice. The following applies: endpoint: median survival time, higher = longer survival. The essentials:
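Vehicle-dosed animals serve as the reference; survival of compound-dosed, tumour-implanted mice is divided by it.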

Where [1] appears, read: dose: 50.0 mg/kg/injection, schedule: Q01DX009 (ip), vehicle: saline with Tween-80.
[2] abbreviates: dose: 100.0 mg/kg/injection, schedule: Q01DX009 (ip), vehicle: Klucel (hydroxypropylcellulose) (HPC).
The mark [3] stands for this setting: dose: 100.0 mg/kg/injection, schedule: Q01DX009 (ip), vehicle: saline with Tween-80.
Setting [4] is: dose: 100.0 mg/kg/injection, schedule: Q04DX003 (ip), vehicle: saline.
[5] abbreviates: dose: 150.0 mg/kg/injection, schedule: Q01DX009 (ip), vehicle: Klucel (hydroxypropylcellulose) (HPC).
The mark [6] stands for this setting: dose: 200.0 mg/kg/injection, schedule: Q01DX009 (ip), vehicle: Klucel (hydroxypropylcellulose) (HPC).
[7] abbreviates: dose: 200.0 mg/kg/injection, schedule: Q01DX009 (ip), vehicle: saline with Tween-80.
Where [8] appears, read: dose: 200.0 mg/kg/injection, schedule: Q04DX003 (ip), vehicle: saline.
The mark [9] stands for this setting: dose: 300.0 mg/kg/injection, schedule: Q01DX009 (ip), vehicle: Klucel (hydroxypropylcellulose) (HPC).
Where [10] appears, read: dose: 400.0 mg/kg/injection, schedule: Q04DX003 (ip), vehicle: saline.
[11] abbreviates: dose: 50.0 mg/kg/injection, schedule: Q04DX003 (ip), vehicle: saline.

As to `COc1ccc(C=Nc2ccc(OC(C)=O)cc2)cc1`, the T/C (dose: 45.0 mg/kg/injection, schedule: Q01DX009 (ip), vehicle: Klucel (hydroxypropylcellulose) (HPC)) is 105 % of control; the T/C under setting [1] is 110 % of control; the T/C (dose: 65.0 mg/kg/injection, schedule: Q01DX009 (ip), vehicle: Klucel (hydroxypropylcellulose) (HPC)) was 110 % of control; the T/C under setting [2] is 110 % of control; the T/C under setting [3] was 100 % of control; the T/C under setting [4] was 104 % of control. For the same molecule, the T/C is, setting by setting: under setting [5], 105 % of control; under setting [6], 115 % of control; (dose: 200.0 mg/kg/injection, schedule: Q01DX009 (ip), vehicle: other) 104 % of control; under setting [7], 120 % of control; under setting [8], 118 % of control; under setting [9], 120 % of control. Further, the T/C (dose: 400.0 mg/kg/injection, schedule: Q01DX009 (ip), vehicle: other) was 95 % of control and the T/C under setting [10] is 109 % of control.
In the case of `Cc1cc(=O)[nH]c(N/N=C/c2ccc(O)cc2)n1`, the T/C was 104 % of control (dose: 75.0 mg/kg/injection, schedule: Q01DX009 (ip), vehicle: Klucel (hydroxypropylcellulose) (HPC)); 109 % of control under setting [5]; 95 % of control under setting [9].
Consider `C#CCn1cnc2c(Cl)ncnc21`, for which the T/C (dose: 50.0 mg/kg/injection, schedule: Q01DX009 (ip), vehicle: other) was 118 % of control; the T/C (dose: 100.0 mg/kg/injection, schedule: Q01DX009 (ip), vehicle: other) is 100 % of control; the T/C under setting [4] is 108 % of control; the T/C under setting [8] was 104 % of control; the T/C under setting [10] was 95 % of control.
Turning to `CCOC(=O)C1(C(=O)O)CC2C(C)C=CC(C)C2C1` (stereo not given), the T/C under setting [2] is 95 % of control; the T/C under setting [6] is 110 % of control; the T/C (dose: 400.0 mg/kg/injection, schedule: Q01DX009 (ip), vehicle: Klucel (hydroxypropylcellulose) (HPC)) was 100 % of control.
With `COC1C=COC2(C)Oc3c(C)c(O)c4c(c3C2=O)/C(=N/C2CCC(O)OC2C)C=C(NC(=O)/C(C)=C\C(=O)C2CC2C(O)C(C)C(O)C(C)C(OC(C)=O)C1C)C4=O` (stereo not given), the T/C (dose: 4.6 mg/kg/injection, schedule: Q01DX009 (ip), vehicle: saline with Tween-80) was 101 % of control; the T/C (dose: 9.25 mg/kg/injection, schedule: Q01DX009 (ip), vehicle: saline with Tween-80) is 105 % of control; the T/C (dose: 18.5 mg/kg/injection, schedule: Q01DX009 (ip), vehicle: saline with Tween-80) is 89 % of control; the T/C (dose: 37.0 mg/kg/injection, schedule: Q01DX009 (ip), vehicle: saline with Tween-80) is 101 % of control.
On to `O=P(Oc1ccc(OP(=O)(N2CC2)N2CC2)cc1)(N1CC1)N1CC1`, for which the T/C by setting is: under setting [11], 168 % of control; (dose: 75.0 mg/kg/injection, schedule: Q04DX003 (ip), vehicle: saline) 177 % of control; (dose: 115.0 mg/kg/injection, schedule: Q04DX003 (ip), vehicle: saline with Tween-80) 190 % of control; (dose: 175.0 mg/kg/injection, schedule: Q04DX003 (ip), vehicle: saline with Tween-80) 254 % of control; (dose: 264.0 mg/kg/injection, schedule: Q04DX003 (ip), vehicle: saline with Tween-80) 150 % of control; (dose: 400.0 mg/kg/injection, schedule: Q04DX003 (ip), vehicle: saline with Tween-80) 254 % of control.
With `COC(COC(N)=O)C1=C(N2CC2)C(=O)C(C)=C(N2CC2)C1=O` (stereo not given), the T/C runs as follows: (dose: 0.03 mg/kg/injection, schedule: Q01DX009 (ip), vehicle: saline) 123 % of control; (dose: 0.12 mg/kg/injection, schedule: Q01DX009 (ip), vehicle: saline) 154 % of control; (dose: 0.25 mg/kg/injection, schedule: Q01DX009 (ip), vehicle: saline) 190 % of control; (dose: 0.5 mg/kg/injection, schedule: Q01DX009 (ip), vehicle: saline) 258 % of control.
Consider `COc1cc2ccc3cc[n+](C)cc3c2cc1OC`, for which the T/C is 95 % of control (dose: 25.0 mg/kg/injection, schedule: Q01DX009 (ip), vehicle: saline); 104 % of control (dose: 25.0 mg/kg/injection, schedule: Q04DX003 (ip), vehicle: saline); 96 % of control and 100 % of control (dose: 50.0 mg/kg/injection, schedule: Q01DX009 (ip), vehicle: saline); 95 % of control under setting [11]; 86 % of control (dose: 100.0 mg/kg/injection, schedule: Q01DX009 (ip), vehicle: saline); 95 % of control and 104 % of control under setting [4]. Further, under setting [8], the T/C is 90 % of control.
For the molecule `CC1(O)c2cccc(Sc3ccccc3)c2C(C)(O)c2c(Sc3ccccc3)cccc21` (stereo not given), the T/C reads like this: under setting [1], 107 % of control; under setting [3], 99 % of control; under setting [7], 98 % of control.
For the molecule `CN(C)C(=S)SCC(=O)NC(CO)C(=O)O` (stereo not given), the T/C is 98 % of control under setting [1], 98 % of control under setting [3] and 89 % of control under setting [7].
Turning to `CCOC(=O)Nc1cc2c(c(N)n1)N=C(CN(C)c1ccc(OC)cc1)CN2`, the T/C by setting is: (dose: 12.5 mg/kg/injection, schedule: Q01DX001 (ip), vehicle: Klucel (hydroxypropylcellulose) (HPC)) 175 % of control; (dose: 25.0 mg/kg/injection, schedule: Q01DX001 (ip), vehicle: Klucel (hydroxypropylcellulose) (HPC)) 240 % of control; (dose: 50.0 mg/kg/injection, schedule: Q01DX001 (ip), vehicle: Klucel (hydroxypropylcellulose) (HPC)) 277 % of control.
In the case of `c1ccc(COc2ccc(OCc3ccccc3)cc2)cc1`, the T/C is, setting by setting: (dose: 75.0 mg/kg/injection, schedule: Q04DX003 (ip), vehicle: saline with Tween-80) 104 % of control; (dose: 150.0 mg/kg/injection, schedule: Q04DX003 (ip), vehicle: saline with Tween-80) 109 % of control; (dose: 300.0 mg/kg/injection, schedule: Q04DX003 (ip), vehicle: saline with Tween-80) 104 % of control.
Consider `COc1ccc(-c2c(C#N)cnc(C)c2C)c(O)c1OC`, for which, where the note is “dose: 0.2 mg/kg/injection, schedule: Q01DX009 (ip), vehicle: Klucel (hydroxypropylcellulose) (HPC)”, the T/C was 95 % of control.
`O=C(O)C(=O)c1ccc(-c2ccccc2)cc1`: the T/C runs as follows: (dose: 25.0 mg/kg/injection, schedule: Q01DX009 (ip), vehicle: saline with Tween-80) 90 % of control; under setting [1], 100 % of control; under setting [3], 113 % of control; (dose: 150.0 mg/kg/injection, schedule: Q01DX009 (ip), vehicle: saline with Tween-80) 110 % of control.
Take `NNC(=O)CCCCCCCCCCCCCCCO`: the T/C under setting [1] was 94 % of control.
As to `C=CCO`, the T/C runs as follows: (dose: 12.5 mg/kg/injection, schedule: Q01DX001 (ip), vehicle: saline with Tween-80) 95 % of control; (dose: 25.0 mg/kg/injection, schedule: Q01DX001 (ip), vehicle: saline with Tween-80) 104 % of control; (dose: 50.0 mg/kg/injection, schedule: Q01DX001 (ip), vehicle: saline with Tween-80) 100 % of control.
Take `COc1cccc2c1C(=O)c1c(O)c3c(c(O)c1C2=O)C[C@@](O)(/C(C)=N\NC(=O)CO)C[C@@H]3OC1CC(N)C(O)C(C)O1` (stereo not given in full): the T/C (dose: 0.27 mg/kg/injection, schedule: Q01DX009 (ip), vehicle: saline) is 172 % of control; the T/C (dose: 0.4 mg/kg/injection, schedule: Q01DX009 (ip), vehicle: saline) was 183 % of control; the T/C (dose: 0.6 mg/kg/injection, schedule: Q01DX009 (ip), vehicle: saline) was 190 % of control; the T/C (dose: 0.9 mg/kg/injection, schedule: Q01DX009 (ip), vehicle: saline) is 186 % of control; the T/C (dose: 1.87 mg/kg/injection, schedule: Q01DX009 (ip), vehicle: saline) was 248 % of control; the T/C (dose: 2.2 mg/kg/injection, schedule: Q04DX003 (ip), vehicle: saline) was 159 % of control and 172 % of control. The T/C is 154 % of control and 213 % of control (dose: 3.3 mg/kg/injection, schedule: Q04DX003 (ip), vehicle: saline); 182 % of control (dose: 3.75 mg/kg/injection, schedule: Q01DX009 (ip), vehicle: saline); 163 % of control and 209 % of control (dose: 5.0 mg/kg/injection, schedule: Q04DX003 (ip), vehicle: saline); 115 % of control (dose: 7.5 mg/kg/injection, schedule: Q01DX009 (ip), vehicle: saline); 150 % of control and 200 % of control (dose: 7.5 mg/kg/injection, schedule: Q04DX003 (ip), vehicle: saline); 110 % of control (dose: 29.0 micrograms/kg/injection, schedule: Q01DX009 (ip), vehicle: saline). Where the note is “dose: 44.0 micrograms/kg/injection, schedule: Q01DX009 (ip), vehicle: saline”, the T/C was 116 % of control.
